Our source for the IC50 and inhibition values is publication PMC13052075, “Synthesis of 1,2,3,4‐Tetrahydroisoquinoline‐3‐Carboxylic Acid‐Embedded Decapeptides: In Silico Studies and In Vitro Evaluation Against Breast Cancer” (ChemistryOpen, 2025).

In this experiment the test system is MCF‐7 human breast cancer cell line. The experiment is described as follows: cells. The settings on record: for IC50: 24 h. Here is the method:
Using GraphPad Prism software, the IC50 values were determined (Figure 8). After conducting the MTT assay, the absorbance data was entered into the software to generate dose–response curves. The nonlinear regression analysis function, specifically log(inhibitor) verus normalized response was employed to calculate the IC50 values for each compound. This method allowed for accurate determination of the concentration required to inhibit 50% of cell viability.
The MTT assay (3‐[4,5‐dimethylthiazol‐2‐yl]‐2,5‐diphenyltetrazolium bromide) was employed to evaluate the anticancer potential of the synthesized compounds against the MCF‐7 human breast cancer cell line. MCF‐7 cells were seeded into a 96‐well plate at a density of 1 × 10^4 cells per well and allowed to adhere for 24 h. Subsequently, the cells were treated with the test compounds at concentrations of 0.1, 1, 2, 5, and 10 µM, prepared in plain Dulbecco's Modified Eagle Medium (DMEM) media. After 24 h of incubation, MTT solution (100 µg per well; Sigma‐Aldrich) was added, and the plates were incubated for an additional 3–4 h to allow the formation of formazan crystals. The resulting formazan was dissolved in DMSO, and absorbance was measured at 570 nm using a microplate reader.

As a reminder, the IC50 is the concentration that inhibits the measured activity by half. High values mean lower potency, low ones higher potency. One may read the inhibition as the drop in the measured response relative to a control, in per cent.

Structures are written as SMILES. Non-standard residues stand in square brackets, D forms with d. Residues, ends and D or L forms follow the SMILES beside them. Tic = O=C(O)[C@@H]1Cc2ccccc2CN1

Take `CC(C)C[C@H](NC(=O)[C@H](Cc1c[nH]c2ccccc12)NC(=O)[C@H](CO)NC(=O)[C@H](CCC(=O)O)NC(=O)[C@@H]1Cc2ccccc2CN1C(=O)[C@H](CCCCN)NC(=O)[C@H](Cc1c[nH]cn1)NC(=O)[C@H](CCCNC(=N)N)NC(=O)CNC(=O)[C@@H](N)Cc1c[nH]cn1)C(=O)O` [DEC‐1] (H-HGRHK[Tic]ESWL-OH): inhibition was half-maximal at 3.38 µM (IC50).
`CC(C)C[C@H](NC(=O)[C@H](Cc1c[nH]c2ccccc12)NC(=O)[C@H](CO)NC(=O)[C@H](CCC(=O)O)NC(=O)[C@@H]1Cc2ccccc2CN1C(=O)[C@H](Cc1c[nH]cn1)NC(=O)[C@H](CCCNC(=N)N)NC(=O)[C@H](CCCCN)NC(=O)[C@H](CS)NC(=O)[C@@H](N)CCCNC(=N)N)C(=O)O` [DEC‐2] (H-RCKRH[Tic]ESWL-OH) came in with a concentration for half-maximal inhibition (IC50) of 6.1 µM.
As for `CC(C)C[C@H](NC(=O)[C@H](Cc1c[nH]c2ccccc12)NC(=O)[C@H](CO)NC(=O)[C@H](CCC(=O)O)NC(=O)[C@@H]1Cc2ccccc2CN1C(=O)[C@H](Cc1c[nH]cn1)NC(=O)[C@H](CCCCN)NC(=O)[C@H](CCCNC(=N)N)NC(=O)[C@H](CS)NC(=O)[C@@H](N)CCCCN)C(=O)O` [DEC‐3] (H-KCRKH[Tic]ESWL-OH), the IC50 stood at 4.49 µM.
In the case of `CC/C(=C(\c1ccccc1)c1ccc(OCCN(C)C)cc1)c1ccccc1` [Tamoxifen, tamoxifen], the inhibition at 0.1 µM (Homo sapiens, MCF7, 24 h, read-out: % Inhibition 0.1 µM) is 14.1 ± 5.41%. For the same compound, the inhibition at 1 µM (Homo sapiens, MCF7, 24 h, read-out: % Inhibition 1 µM) was 29.6 ± 10.4%. The inhibition at 2 µM (Homo sapiens, MCF7, 24 h, read-out: % Inhibition 2 µM) was 38.2 ± 2.76%. Also, under “Homo sapiens, MCF7, 24 h, read-out: % Inhibition 5 µM”, the inhibition at 5 µM worked out at 57.2 ± 5.99%. Also, the inhibition at 10 µM (Homo sapiens, MCF7, 24 h, read-out: % Inhibition 10 µM) was 92.21 ± 0.73%.
